Measurements: patent US20260365653A1, “IRREVERSIBLE MUTEGFR INHIBITORS” (Bayer Aktiengesellschaft, priority 2022, published 2026)

Legend:
BA/F3 (insSVD) cells = experiment: Ba/F3-EGFR-insSVD cell survival assay (Cell Titer-Glo); assay type: cell-based; settings: Mus musculus, BaF3, 48 h, Table 3a, cell survival, Cell Titer-Glo, with 10 ng/ml EGF, without IL-3
Outline: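 Ba/F3 cells stably expressing retroviral EGFR-insSVD or insSVD T790M, grown without IL-3 on 10 ng/ml EGF, 4000 cells/well. Compound pinned in, 48 h at 37° C. Viability by CellTiter-Glo luminescence.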

[1] = biological target: T1, mutEGFR (D770_N771insNPG, T790) (Homo sapiens, UniProt P00533, INS770NPG/T790M); experiment: mutEGFR (D770_N771insNPG, T790) kinase assay; assay type: biochemical; settings: Table 2a, D770_N771insNPG
T1 construct: exact insNPG construct not described; in-house EGFR proteins were N-terminal GST fusions from baculovirus/insect cells (borders R669-A1210 given only for WT, insSVD, insASV)
T1 sequence (P00533 with tags, fused parts or gaps INS770NPG/T790M limits assumed): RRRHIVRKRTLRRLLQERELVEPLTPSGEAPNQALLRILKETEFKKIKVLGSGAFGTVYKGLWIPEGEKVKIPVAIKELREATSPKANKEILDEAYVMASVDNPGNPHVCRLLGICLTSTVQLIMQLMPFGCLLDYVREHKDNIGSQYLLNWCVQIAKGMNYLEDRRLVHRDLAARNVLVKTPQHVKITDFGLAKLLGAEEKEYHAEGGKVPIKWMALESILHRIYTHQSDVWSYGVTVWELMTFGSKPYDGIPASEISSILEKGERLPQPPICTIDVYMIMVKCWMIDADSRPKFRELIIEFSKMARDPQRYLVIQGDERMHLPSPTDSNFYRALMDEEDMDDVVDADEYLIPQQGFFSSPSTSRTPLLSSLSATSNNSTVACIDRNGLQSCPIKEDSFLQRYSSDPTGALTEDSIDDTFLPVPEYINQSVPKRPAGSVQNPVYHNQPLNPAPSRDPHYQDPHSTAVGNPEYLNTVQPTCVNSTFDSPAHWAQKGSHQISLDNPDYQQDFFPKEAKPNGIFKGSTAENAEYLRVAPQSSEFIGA
Text: The different EGFR proteins used in the biochemical kinase activity inhibition assays were generated inhouse by expression in insect cells using Baculo Virus system and subsequent purification as described in the following paragraphs.
The cDNAs encoding the various protein sequences from human EGFR human (P00533) were optimized for expression in eukaryotic cells and synthesized by the GeneArt Technology at Life Technologies.

[2] = biological target: T2, mutEGFR (D770_N771insSVD) (Homo sapiens, UniProt P00533, DUP768-770); experiment: Exon20-Mutant-EGFR (D770_N771insSVD) kinase assay (TR-FRET); assay type: biochemical; settings: mutEGFR (D770_N771insSVD) kinase assay IC50, Table 2a; D770_N771insSVD; 2 mM ATP
T2 construct: GST-EGFR #3 (SVD between D770 and N771); made in house; host or cells: Sf9 insect cells (baculovirus)
T2 sequence (P00533 with tags, fused parts or gaps DUP768-770): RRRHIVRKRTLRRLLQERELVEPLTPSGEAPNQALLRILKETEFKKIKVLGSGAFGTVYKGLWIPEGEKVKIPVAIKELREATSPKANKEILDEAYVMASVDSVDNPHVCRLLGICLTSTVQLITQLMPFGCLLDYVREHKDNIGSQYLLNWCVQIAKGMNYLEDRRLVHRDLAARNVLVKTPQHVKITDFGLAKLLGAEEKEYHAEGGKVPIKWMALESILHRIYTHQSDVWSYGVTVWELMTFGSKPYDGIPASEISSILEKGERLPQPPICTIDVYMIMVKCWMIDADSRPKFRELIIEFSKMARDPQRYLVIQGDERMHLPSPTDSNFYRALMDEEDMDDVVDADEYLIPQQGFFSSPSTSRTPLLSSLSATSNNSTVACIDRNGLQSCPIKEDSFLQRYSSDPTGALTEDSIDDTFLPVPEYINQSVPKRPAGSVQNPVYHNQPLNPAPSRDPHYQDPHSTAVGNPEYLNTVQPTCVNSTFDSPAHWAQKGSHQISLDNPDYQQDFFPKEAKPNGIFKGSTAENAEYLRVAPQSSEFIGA

Row | IC50 [1] [µM] | IC50 [2] [µM] | SMILES | IC50 (BA/F3 (insSVD) cells) [µM]
1 | 0.000317 | 0.000161 | CN(C)C/C=C/C(=O)N1CCn2nc(-c3ccc4cc[nH]c4c3)c(-c3ccncc3)c2C1 [Example 200, (2E)-4-(dimethylamino)-1-[2-(1H-indol-6-yl)-3-(pyridin-4-yl)-6,7-dihydropyrazolo[1,5-a]pyrazin-5(4H)-yl]but-2-en-1-one] | 0.069
2 | 0.00222 | 0.000644 | C=CC(=O)N1Cc2c(-c3ccncc3)c(-c3ccc(F)cc3)nn2C(C)(C)C1 [Example 207, 1-[2-(4-fluorophenyl)-7,7-dimethyl-3-(pyridin-4-yl)-6,7-dihydropyrazolo[1,5-a]pyrazin-5(4H)-yl]prop-2-en-1-one] | 0.0246
3 | 0.000365 | 0.00014 | C=CC(=O)N1Cc2c(-c3ccncc3)c(-c3ccc(Cl)c(C)c3)nn2C(C)(C)C1 [Example 208, 1-[2-(4-chloro-3-methylphenyl)-7,7-dimethyl-3-(pyridin-4-yl)-6,7-dihydropyrazolo[1,5-a]pyrazin-5(4H)-yl]prop-2-en-1-one] | 0.0158
4 | 0.000694 | 0.000226 | C=CC(=O)N1Cc2c(-c3ccncc3)c(-c3ccc(Cl)cc3)nn2C(C)(C)C1 [Example 209, 1-[2-(4-chlorophenyl)-7,7-dimethyl-3-(pyridin-4-yl)-6,7-dihydropyrazolo[1,5-a]pyrazin-5(4H)-yl]prop-2-en-1-one] | 0.00815
5 | 0.0604 | 0.0259 | C=CC(=O)N1Cc2c(-c3ccncc3)c(-c3ccc(F)cc3)nn2CC1(C)C [Example 210, 1-[2-(4-fluorophenyl)-6,6-dimethyl-3-(pyridin-4-yl)-6,7-dihydropyrazolo[1,5-a]pyrazin-5(4H)-yl]prop-2-en-1-one] | 0.551
6 | 0.0405 | 0.0125 | C=CC(=O)N1Cc2c(-c3ccncc3)c(-c3ccc(Cl)cc3)nn2CC1(C)C [Example 211, 1-[2-(4-chlorophenyl)-6,6-dimethyl-3-(pyridin-4-yl)-6,7-dihydropyrazolo[1,5-a]pyrazin-5(4H)-yl]prop-2-en-1-one] | 0.378
7 | 0.0101 | 0.00561 | C=CC(=O)N1Cc2c(-c3ccncc3)c(-c3ccc(Cl)c(C)c3)nn2CC1(C)C [Example 212, 1-[2-(4-chloro-3-methylphenyl)-6,6-dimethyl-3-(pyridin-4-yl)-6,7-dihydropyrazolo[1,5-a]pyrazin-5(4H)-yl]prop-2-en-1-one] | 0.296
8 | 0.00327 | 0.000902 | CN(C)C/C=C/C(=O)N1Cc2c(-c3ccncc3)c(-c3ccc(F)cc3)nn2C(C)(C)C1 [Example 213, (2E)-4-(dimethylamino)-1-[2-(4-fluorophenyl)-7,7-dimethyl-3-(pyridin-4-yl)-6,7-dihydropyrazolo[1,5-a]pyrazin-5(4H)-yl]but-2-en-1-one] | 0.112
9 | 0.000654 | 0.000272 | Cc1cc(-c2nn3c(c2-c2ccncc2)CN(C(=O)/C=C/CN(C)C)CC3(C)C)ccc1Cl [Example 214, (2E)-1-[2-(4-chloro-3-methylphenyl)-7,7-dimethyl-3-(pyridin-4-yl)-6,7-dihydropyrazolo[1,5-a]pyrazin-5(4H)-yl]-4-(dimethylamino)but-2-en-1-one] | 0.069
10 | 0.0012 | 0.000513 | CN(C)C/C=C/C(=O)N1Cc2c(-c3ccncc3)c(-c3ccc(Cl)cc3)nn2C(C)(C)C1 [Example 215, (2E)-1-[2-(4-chlorophenyl)-7,7-dimethyl-3-(pyridin-4-yl)-6,7-dihydropyrazolo[1,5-a]pyrazin-5(4H)-yl]-4-(dimethylamino)but-2-en-1-one] | 0.0417
11 | 0.164 | 0.025 | CN(C)C/C=C/C(=O)N1Cc2c(-c3ccncc3)c(-c3ccc(F)cc3)nn2CC1(C)C [Example 216, (2E)-4-(dimethylamino)-1-[2-(4-fluorophenyl)-6,6-dimethyl-3-(pyridin-4-yl)-6,7-dihydropyrazolo[1,5-a]pyrazin-5(4H)-yl]but-2-en-1-one] | 0.418
12 | 0.0598 | 0.0062 | CN(C)C/C=C/C(=O)N1Cc2c(-c3ccncc3)c(-c3ccc(Cl)cc3)nn2CC1(C)C [Example 217, (2E)-1-[2-(4-chlorophenyl)-6,6-dimethyl-3-(pyridin-4-yl)-6,7-dihydropyrazolo[1,5-a]pyrazin-5(4H)-yl]-4-(dimethylamino)but-2-en-1-one] | 0.277
13 | 0.0164 | 0.00699 | Cc1cc(-c2nn3c(c2-c2ccncc2)CN(C(=O)/C=C/CN(C)C)C(C)(C)C3)ccc1Cl [Example 218, (2E)-1-[2-(4-chloro-3-methylphenyl)-6,6-dimethyl-3-(pyridin-4-yl)-6,7-dihydropyrazolo[1,5-a]pyrazin-5(4H)-yl]-4-(dimethylamino)but-2-en-1-one] | 0.367
14 | 0.00125 | 0.000336 | C=CC(=O)N1Cc2c(-c3ccncc3)c(-c3ccc(F)cc3)nn2C(CCO)C1 (stereo not drawn) [Example 223, 1-(2-(4-fluorophenyl)-7-(2-hydroxyethyl)-3-(pyridin-4-yl)-6,7-dihydropyrazolo[1,5-a]pyrazin-5(4H)-yl) prop-2-en-1-one] | 0.018
15 | 0.00759 | 0.00238 | C=CC(=O)N1Cc2c(-c3ccncc3)c(-c3ccc(F)cc3)nn2C(CC(N)=O)C1 (stereo not drawn) [Example 224, 2-(5-acryloyl-2-(4-fluorophenyl)-3-(pyridin-4-yl)-4,5,6,7-tetrahydropyrazolo[1,5-a]pyrazin-7-yl) acetamide] | 0.338
16 | 0.0366 | 0.0101 | C=CC(=O)N1Cc2c(-c3ccncc3)c(-c3ccc(F)cc3)nn2C(CC(=O)NC)C1 (stereo not drawn) [Example 225, 2-(5-acryloyl-2-(4-fluorophenyl)-3-(pyridin-4-yl)-4,5,6,7-tetrahydropyrazolo[1,5-a]pyrazin-7-yl)-N-methylacetamide] | 0.386
17 | 0.0233 | 0.014 | C=CC(=O)N1Cc2c(-c3ccncc3)c(-c3ccc(F)cc3)nn2C(CC(=O)N(C)C)C1 (stereo not drawn) [Example 226, 2-(5-acryloyl-2-(4-fluorophenyl)-3-(pyridin-4-yl)-4,5,6,7-tetrahydropyrazolo[1,5-a]pyrazin-7-yl)-N,N-dimethylacetamide] | 0.134
18 | 0.000394 | 0.00012 | C=CC(=O)N1Cc2c(-c3ccncc3)c(-c3ccc(Cl)cc3F)nn2CC1C (stereo not drawn) [Example 227, 1-(2-(4-chloro-2-fluorophenyl)-6-methyl-3-(pyridin-4-yl)-6,7-dihydropyrazolo[1,5-a]pyrazin-5(4H)-yl) prop-2-en-1-one] | 0.00594
19 | 0.000262 | 0.000113 | C[C@H]1Cn2nc(-c3ccc(Cl)cc3)c(-c3ccncc3)c2CN1C(=O)/C=C/CN(C)C [Example 245, (2E)-1-[(6S)-2-(4-chlorophenyl)-6-methyl-3-(pyridin-4-yl)-6,7-dihydropyrazolo[1,5-a]pyrazin-5(4H)-yl]-4-(dimethylamino)but-2-en-1-one] | 0.0119
20 | 0.000203 | 0.000131 | C[C@@H]1Cn2nc(-c3ccc(Cl)cc3)c(-c3ccncc3)c2CN1C(=O)/C=C/CN(C)C [Example 246, (2E)-1-[(6R)-2-(4-chlorophenyl)-6-methyl-3-(pyridin-4-yl)-6,7-dihydropyrazolo[1,5-a]pyrazin-5(4H)-yl]-4-(dimethylamino)but-2-en-1-one] | 0.0337
21 | 0.604 | 0.0781 | C=CC(=O)N1Cc2c(-c3ccnc4[nH]cc(C)c34)c(-c3ccc(C(F)(F)F)cc3)nn2C[C@@H]1C [Example 248, 1-[(6S)-6-methyl-3-(3-methyl-1H-pyrrolo[2,3-b]pyridin-4-yl)-2-[4-(trifluoromethyl)phenyl]-6,7-dihydropyrazolo[1,5-a]pyrazin-5(4H)-yl]prop-2-en-1-one] | 0.0594
22 | 0.00723 | 0.0409 | C=CC(=O)N1Cc2c(-c3ccnc4[nH]cc(C)c34)c(-c3ccc(F)cc3)nn2C[C@@H]1C [Example 251, 1-[(6S)-2-(4-fluorophenyl)-6-methyl-3-(3-methyl-1H-pyrrolo[2,3-b]pyridin-4-yl)-6,7-dihydropyrazolo[1,5-a]pyrazin-5(4H)-yl]prop-2-en-1-one] | 0.0243
23 | 0.437 | 0.036 | Cc1c[nH]c2nccc(-c3c(-c4ccc(C(F)(F)F)cc4)nn4c3CN(C(=O)/C=C/CN(C)C)[C@@H](C)C4)c12 [Example 254, (2E)-4-(dimethylamino)-1-[(6S)-6-methyl-3-(3-methyl-1H-pyrrolo[2,3-b]pyridin-4-yl)-2-[4-(trifluoromethyl)phenyl]-6,7-dihydropyrazolo[1,5-a]pyrazin-5(4H)-yl]but-2-en-1-one] | 0.0399
24 | 0.0208 | 0.0697 | Cc1c[nH]c2nccc(-c3c(-c4ccc(F)cc4)nn4c3CN(C(=O)/C=C/CN(C)C)[C@@H](C)C4)c12 [Example 257, (2E)-4-(dimethylamino)-1-[(6S)-2-(4-fluorophenyl)-6-methyl-3-(3-methyl-1H-pyrrolo[2,3-b]pyridin-4-yl)-6,7-dihydropyrazolo[1,5-a]pyrazin-5(4H)-yl]but-2-en-1-one] | 0.0307
